Assay results taken from US20050054103A1, “Expansion of renewable stem cell populations using modulators of PI 3-kinase” (priority 2003, published 2005).

Tests used:
HL-60 cells = assay: Copper determination in chelator treated cells (atomic absorption); format: cell-based, human; settings: for activity at 20 µM / activity at 100 µM / activity at 500 µM: Homo sapiens, HL-60, read-out: Average Intracellular Cu (% of control)
Protocol: Copper Determination: Cells were harvested by centrifugation at 1000×g for 5 minutes. The cell pellet was washed three times by re-suspending the cells in PBS (Ca^++ and Mg^++ free) and centrifugation at 1000×g. An aliquot containing 2×10^6 cells was then transferred into a metal-free Eppendorf tube and the cells were recovered by centrifugation at 1000×g. The cell pellet was re-suspended in 0.03 M ultra-pure nitric acid to give a concentration of 1×10^7 cells/ml. The cells were homogenized with a high shear mixer (polytron, Kinematica, Switzerland) for 1 minutes to disrupt the cell and release intracellular copper content. Cell samples were vortexed before transferring to a vial autosampler and analyzed in duplicate by a Perkin Elmer graphite furnace atomic absorption spectrophotometer at a wavelength of 324.7 nm. The samples were analyzed against copper standard solution prepared from a commercial stock solution that was diluted with 0.03 M ultra pure nitric acid.
FIG. 44 provides the chemical structure of the various chelators employed in these experiments.

[1] = test system: Mouse erythroleukemic cells (MEL); assay: HMBA-induced differentiation of erythroleukemic cells; format: cell-based; settings: day 3
Protocol: Mouse erythroleukemic cells (MEL): MEL cells are erythroblast like cells. Following treatment with several chemicals (differentiation inducers) the cells undergo erythroid differentiation and accumulate hemoglobin. […] At day 3 of the culture, the total number of cells and the percentage of hemoglobin-containing cells were determined (Table 7).
On day 3, total cell number and hemoglobin containing (benzidine positive) cells were determined.

CD34 cells = assay: Transition metal chelators in CD34+ cell liquid cultures (cell number, CD34 cells, clonability); format: cell-based, human; settings: for cell proliferation and CFUc expansion in long-term CD34 cultures: long term cultures with early cytokines
Protocol: The interphase layer of mononuclear cells were collected, washed three times with Ca/Mg free phosphate buffered saline containing 1% bovine serum albumin (BSA). The cells were incubated for 30 min. at 4° C. with murine monoclonal anti CD34 antibody (0.5 μg/10^6 mononuclear cells) and thereafter isolated using the miniMACS apparatus (Miltenyi-Biotec, Bergisch, Gladbach, Germany) according to the manufacturer's protocol.
Culture procedures: For the expansion of progenitor cells, CD34^+ enriched fractions or unseparated mononuclear cells were seeded at about 1-3×10^4 cells/ml in either alpha minimal essential medium containing 10% preselected fetal calf serum (FCS) (both from GIBCO, Grand Island, N.Y.), or serum-free medium (Progenitor-34 medium, Life Technologies, Grand Island, N.Y.). The media were supplemented with a mixture of growth factors and transition metal chelators. The cultures were incubated at 37° C. in an atmosphere of 5% CO2 in air with extra humidity. Half of the medium was changed weekly with fresh medium containing all the supplements.
Cloning potential evaluations: The cloning potential of cells developed in the liquid culture was assayed, at different intervals, in semi-solid medium. The cells were washed and seeded in 35 mm dishes in methylcellulose containing alpha medium supplemented with recombinant growth factors (SCF, G-CSF, GM-CSF and EPO). Following 2 weeks incubation, the cultures were scored with an inverted microscope. Colonies were classified as blast, mixed, erythroid, myeloid, and megakaryocytic, according to their cellular composition.
Morphological assessment: In order to characterize the resulting culture populations, aliquots of cells were deposited on a glass slide (cytocentrifuge, Shandon, Runcorn, UK), fixed and stained in May-Grunwald Giemsa. Other aliquots were stained by benzidine for intracellular hemoglobin.
Immunofluorescence staining: At different intervals, cells from the liquid cultures were assayed for CD34 antigen. Aliquots were harvested, washed and incubated on ice with FITC-labeled anti CD45 monoclonal antibody and either PE-labeled anti CD34 (HPCA-2) monoclonal antibody or PE-labeled control mouse Ig. After incubation, red cells were lysed with lysing solution, while the remaining cells were washed and analyzed by flow cytometer.
Flow cytometry: Cells were analyzed and sorted using FACStar^plus flow cytometer (Becton-Dickinson, Immunofluorometry systems, Mountain View, Calif.). Cells were passed at a rate of 1,000 cells/second through a […] nozzle, using saline as the sheath fluid. […] The PMTs was set at the appropriate voltage. Logarithmic amplification was applied for measurements of fluorescence and linear amplification—for forward light scatter. At least 10^4 cells were analyzed.
Cord blood-derived CD34 cells were plated in liquid culture in the presence of: FL—50 ng/ml, SCF—50 ng/ml, IL-6—50 ng/ml, with or without IL-3—20 ng/ml, with or without TEPA—10 μM. On day 7, the percentage of CD34 cells and the total cell number were determined. Aliquots equivalent to 1×10^3 initiating cells were assayed on days 0 and 7 for colony forming cells (CFU) by cloning in semi-solid medium. CFU expansion represents the ratio of CFU present on day 7 to CFU present on day 0.
CD34^+ cells derived from human neonatal cord blood were purified by immunomagnetic method and then cultured in liquid medium supplemented with cytokines either with or without transition metal chelators. At weekly intervals, the cultures were demi-depopulated by removing half of the culture content (supernatant and cells) and replacing it with fresh medium, cytokines and the chelators. At the indicated weeks the cellular content of the cultures were quantified for total cells (by a manual microscopic/hemocytometric method), for CD34^+ cells (by immuno-flow cytometry) and for clonogenic cells (by cloning the cells in cytokine-supplemented semi-solid medium).

CD34+ cells [2] = assay: Ex vivo expansion of CD34+ cell enriched cultures with RXR, RAR and RAR+RXR antagonists (CFU, CD34+ counts, FACS); format: cell-based, human
Protocol: Cultures were prepared and maintained as described above.
, the percentage of cells bearing the CD34^+ marker (considered to be mostly committed progenitor cells), as well as the percentage of cells bearing the markers CD34^+/CD38^− and CD34^+Lin^− […]

CD34+ cells [3] = assay: Nicotinamide supplementation of ex-vivo hematopoietic stem/progenitor cell cultures; format: cell-based, human; settings: for CD34+ cells per ml: 5 cytokines, re-selected
Protocol: Cultures were prepared and maintained as described above. Nicotinamide was added to cell cultures at concentrations of 1, 5 or 10 mM for up to three weeks culture period. All other procedures including mononuclear cell fraction collection and purification, purification of CD34^+ cells from mononuclear cell fractions, ex-vivo expansion of stem/progenitor cell populations, morphological assessment, surface antigen analysis, determination of CD34, CD38, Lin and other hematopoietic marker expression and cell population calculations were carried out as described in the experimental methods section of Example 1 above.
Hematopoietic CD34+ cell cultures were initiated in the presence of a combination of 5 cytokines, SCF, TPO, FLt3, IL-6 and IL-3, with or without different concentrations of nicotinamide. Following three weeks incubation period, the CD34+ cells were re-selected from culture by affinity re-purification method and were enumerated. […] In addition, the re-selected CD34+ cell fraction was FACS analyzed for stem/progenitor cell markers. The results, presented in FIGS. 15-17 and 18a-b, show substantial increases in the proportion of CD34+/CD38−, CD34+/Lin− and CD34+/(HLA-DR38−) cells in cultures treated with nicotinamide.

[4] = polyamine chelating agents, long-term CD34 cultures (FIGS. 39a-b)
[5] = HX-531 (10^−5M in table head), 3 weeks after seeding

Average Intracellular ppb Cu (HL-60 cells; 20 μM chelator) [ppb] | Average Intracellular ppb Cu (HL-60 cells; 100 μM chelator) [ppb] | Average Intracellular ppb Cu (HL-60 cells; 500 μM chelator) [ppb] | Compound | activity at 20 µM (HL-60 cells; 20 μM chelator) [%] | activity at 100 µM (HL-60 cells; 100 μM chelator) [%] | activity at 500 µM (HL-60 cells; 500 μM chelator) [%] | also measured
15.8 | 17.7 |  | C1CNCCNCCN1.Cl.Cl.Cl [1,4,7-Triazacyclononane trihydrochloride] | 32 | 36 |  | 
37.9 | 27.4 | 28.3 | O=C1CC(=O)NCCNCCCNCCN1 [1,4,8,11-Tetraaza cyclotetradecane-5,7-dione] | 77 | 56 | 57 | 
13.4 | 12.1 | 9.6 | C1CNCCCNCCNCCCNC1 [1,4,8,12-tetraaza cyclopentadecane] | 27 | 25 | 19 | 
35.5 | 36.1 | 35.0 | C1COCCNCCOCCN1 [1,7-Dioxa-4,10-diazacyclododecane] | 72 | 73 | 71 | 
39.0 | 22.9 | 17.6 | C1CNCCOCCNCCN1 [1-Oxa-4,7,10-triazacyclododecane] | 79 | 46 | 36 | 
 |  |  | C[C@H](CS)C(=O)N1CCC[C@H]1C(=O)O [Captopril, captopril] |  |  |  | Benzidine Positive Cells (%) ([1]; HMBA + chelator 20 μM): 29%; Cells/ml (×10^4) ([1]; HMBA + chelator 20 μM): 34 ×10^4; Benzidine Positive Cells (%) ([1]; HMBA + chelator 40 μM): 12%; Cells/ml (×10^4) ([1]; HMBA + chelator 40 μM): 34 ×10^4
 |  |  | NCCN [EDA, ethylenediamine] |  |  |  | cell proliferation and CFUc expansion in long-term CD34 cultures (CD34 cells): support continuous cell proliferation and long-term generation of CFUc and to delay cell differentiation; concentration with optimal activity (CD34 cells; [4]): 20 µM
 |  |  | CC(=O)NCCCCCCNC(C)=O [HMBA, hexamethylene bisacetamide] |  |  |  | Benzidine Positive Cells (%) ([1]; HMBA 4 mM alone): 46%; Cells/ml (×10^4) ([1]; HMBA 4 mM alone): 32 ×10^4
 |  |  | CN1c2ccc([N+](=O)[O-])cc2N=C(c2ccc(C(=O)O)cc2)c2cc3c(cc21)C(C)(C)CCC3(C)C [HX-531, 4-[5H-2,3-(2,5-Dimethyl-2,5-Hexano) 5-Methyl-8-nitrodibenzo [b,e][1,4]diazepin-11-yl) Benzoic acid] |  |  |  | CD34^+ (×10^4) (CD34+ cells [2]; [5]): 167 ×10^4; CFU (×10^3) (CD34+ cells [2]; [5]): 1920 ×10^3; CFU mixed (×10^3) (CD34+ cells [2]; HX-531, 3 weeks after seeding): 120 ×10^3; CD34^+ (×10^4) (CD34+ cells [2]; HX-531, 5 weeks after seeding): 1636 ×10^4; CFU (×10^3) (CD34+ cells [2]; HX-531, 5 weeks after seeding): 8542 ×10^3; CD34^+ (×10^4) (CD34+ cells [2]; HX-531, 9 weeks after seeding): 4977 ×10^4; CFU (×10^3) (CD34+ cells [2]; HX-531, 9 weeks after seeding): 36557 ×10^3; CD34^+ (×10^4) (CD34+ cells [2]; HX-531, 11 weeks after seeding): 4055 ×10^4; CFU (×10^3) (CD34+ cells [2]; HX-531, 11 weeks after seeding): 67338 ×10^3
 |  |  | CCCOc1cc2c(cc1\C(C)=C/C=C/C(C)=C/C(=O)O)C(C)(C)CCC2(C)C [LGN 100754] |  |  |  | activity on ex vivo expansion of stem/progenitor cells (CFU, CD34+, CD34+/38−, CD34+/Lin−) (CD34+ cells [2]; 10^−7 M, with TPO, FLT3, IL-6 and IL-3, 3 and 5 weeks): no activity
33.8 | 26.2 | 27.9 | NCCCNCCCNCCCN [N,N′-bis(3-aminopropyl)-1,3-propanediamine] | 69 | 53 | 57 | 
 |  |  | NC(=O)c1cccnc1 [Nicotinamide] |  |  |  | CD34+ cells per ml (CD34+ cells [3]; 1 mM nicotinamide, three weeks): 99×10^4 cells per ml; increase in CD34+/CD38− cells density vs untreated control (CD34+ cells [3]; 1 mM, three weeks): 1.7 fold; increase in CD34+/Lin− cells density vs untreated control (CD34+ cells [3]; 1 mM, three weeks): 10.5 fold; CD34+ cells per ml (CD34+ cells [3]; 5 mM nicotinamide, three weeks): 180×10^4 cells per ml; increase in CD34+/(HLA-DR38−) cells density vs untreated control (CD34+ cells [3]; 5 mM, three weeks): 11.5 fold; increase in CD34+/CD38− cells density vs untreated control (CD34+ cells [3]; 5 mM, three weeks): 51.7 fold; increase in CD34+/Lin− cells density vs untreated control (CD34+ cells [3]; 5 mM, three weeks): 205.5 fold; % of CD34^+/CD38^− of total cells (CD34+ cells [3]; Nicotinamide 5 mM): 9.69%; % of CD34^+/Lin^− of total cells (CD34+ cells [3]; Nicotinamide 5 mM): 4.11%; % of CD34^+/CD38^− of total cells (CD34+ cells [3]; Nicotinamide 10 mM): 34.67%; % of CD34^+/Lin^− of total cells (CD34+ cells [3]; Nicotinamide 10 mM): 16.58%
 |  |  | CC(C)(S)[C@@H](N)C(=O)O [PEN, Penicillamine] |  |  |  | cell proliferation and CFUc expansion in long-term CD34 cultures (CD34 cells): sustained cell proliferation and expansion of clonogenic cells; concentration with optimal activity (CD34 cells; transition metal chelating agents, long-term CD34 cultures (FIGS. 40a-b)): 5 µM
27.7 | 21.2 | 16.8 | NCCNCCNCCN [TETA, triethylene-tetramine] | 56 | 43 | 34 | cell proliferation and CFUc expansion in long-term CD34 cultures (CD34 cells): support continuous cell proliferation and long-term generation of CFUc and to delay cell differentiation; concentration with optimal activity (CD34 cells; [4]): 20 µM
 |  |  | Copper |  |  |  | effect on TEPA activities (CD34 cells; TEPA-treated cultures supplemented with Copper): reversed
 |  |  | Zinc |  |  |  | cell proliferation and CFUc expansion in long-term CD34 cultures (CD34 cells): mimicked the effect of the chelating agents in long term cultures, but to a smaller extent than the chelators themselves

Compound | Average Intracellular ppb Cu (HL-60 cells; 20 μM chelator) [ppb] | Average Intracellular ppb Cu (HL-60 cells; 100 μM chelator) [ppb] | Average Intracellular ppb Cu (HL-60 cells; 500 μM chelator) [ppb] | activity at 20 µM (HL-60 cells; 20 μM chelator) [%] | activity at 100 µM (HL-60 cells; 100 μM chelator) [%] | activity at 500 µM (HL-60 cells; 500 μM chelator) [%] | also measured
NCCCN(CCN)CCN [N,N,Bis (2 animoethyl) 1,3 propane diamine] | 10.8 | 13.4 |  |  |  |  | Average Intracellular Cu (% of control) (HL-60 cells; 20 μM chelator): 22%; Average Intracellular Cu (% of control) (HL-60 cells; 100 μM chelator): 27%
Glycyl-glycyl-histidine Cu complex | 202.7 | 582 | 1278 |  |  |  | Average Intracellular Cu (% of control) (HL-60 cells; 20 μM chelator): 411%; Average Intracellular Cu (% of control) (HL-60 cells; 100 μM chelator): 1181%; Average Intracellular Cu (% of control) (HL-60 cells; 500 μM chelator): 2592%
